Patent US4397839A, “Surface active material and process for preparing same” (Tokyo Tanabe Company, Limited, priority 1981, dated 1983)
Several values for one entry are separate records, joined by “and”; a condition that tells them apart may be missing. Identical values can stand only once. Counter-ions that a name gives are not always drawn.

Tested on: mature rabbits suffering from septicemia induced by Escherichia coli, complicated by RDS
Format: in vivo, rabbit
Protocol: Specifically, 32 rabbits in the abovedescribed morbid state were divided into 4 groups including one control (or no-treatment) group. […] Then, all groups were comparatively examined for the degree of improvement in respiratory function. The morbid rabbits were prepared and the degree of lung injury was evaluated according to the methods of Cuevas et al. (Archives of Surgery, 104, 319, 1972), and the circulating titer of endotoxin in blood was determined according to the method of Reinhold et al. (Proceedings of the Society for Experimental Biology and Medicine, 137, 334, 1971). The treatment with the material of the invention and/or kanamycin sulfate was carried out within 24 hours before and after the onset of RDS. The material of the invention was instilled 1-6 times into the airway in a dose of 50-100 mg/kg for each treatment, while 80-150 mg/kg of kanamycin sulfate was intramuscularly injected in 2-8 divided doses. Two days after treatment, the subjects were examined for survival and the degree of lung injury. […] The degree of lung injury becomes severer as the value increases.

## NC[C@H]1O[C@H](O[C@H]2[C@H](O)[C@@H](O[C@H]3O[C@H](CO)[C@@H](O)[C@H](N)[C@H]3O)[C@H](N)C[C@@H]2N)[C@H](O)[C@@H](O)[C@@H]1O [kanamycin sulfate]
Individual animals (one line per subject)
  Circulating titer (endotoxin in blood): 0.10 µg/mL and 0.01 µg/mL and 0.00 µg/mL and 0.40 µg/mL and 0.02 µg/mL
Individual animals, two days after treatment
  Survival: No and Yes
Individual animals, two days after treatment, severer as the value increases
  Degree of lung injury: 3 and 0 and 1 and 2
